From US6352709B1, “Localized use of nitric oxide-adducts to prevent internal tissue damage” (NitroMed, Inc., priority 1993, dated 2002) come the findings set out here.

Test [1] relates to balloon-injured rabbit femoral artery. As to the kind of experiment: [125I]-S-NO-BSA binding to balloon-injured femoral artery. Type of test: in vivo. The procedure: Rabbit femoral arteries were isolated and balloon-injured as described in Example 1 and [^125I]-S-NO-BSA applied either directly into the injured artery (local) or injected intraarterially via the opposite femoral artery (systemic). [^125I]-S-NO-BSA binding was determined by quantification of radioactivity after flow was reestablished for a period of 15 minutes. Non-specific [^125I]-S-NO-BSA binding (sham) was determined from uninjured carotid artery harvested simultaneously with femoral arteries. Data are presented as mean +/− SEM per gram of wet tissue weight, and are derived from four animals. *P<0.0.029, local vs. systemic delivery and +/+P<0.05, systemic injured vs. sham.
Preparation of [^125I]-labeled S-NO-BSA and [^111In] labeled platelets: BSA (0.1 mg/ml) was combined with two IODO-BEADS and 0.1 mCi of Na[^125I]. The solution was incubated for 45 minutes and unincorporated Na[^125I] was removed by gel filtration with Sephadex G25 equilibrated with TBS containing 0.1 mg/ml BSA. […] [^111In]-labeling of platelets was performed after the method of Wistow and colleagues.^(17)
(§1) Animal Preparation: All animal preparations were performed within the institutional guidelines of the Brockton/West Roxbury Department of Veteran Affairs Medical Center and Boston University Medical Center, and in accordance with the guiding principles of the American Physiological Society. New Zealand white rabbits (3.5-4.2 kg) of either sex were premedicated with 5 mg/kg intramuscular (IM) xylazine hydrochlolide (Miles Pharmaceuticals, Shawnee Mission, Kans.), and 0.1 mg/kg subcutaneous (SC) atropine sulfate (Lyphomed, Deerfield, Ill.) fifteen minutes prior to the induction of anesthesia. Anesthesia was induced with 40 mg/kg IM ketamine hydrochloride (Fort Dodge Laboratories, Fort Dodge, Ind.) and 5 mg/kg IM acepromazine maleate (Aveco Company, Inc., Fort Dodge, Ind.). Additional doses of ketamine hydrochloride were administered as necessary to maintain anesthesia. For survival studies, 100,000 U penicillin G (Apothecon of Bristol-Myers Squibb, Princeton, N.J.), was administered IM perioperatively. […]

The test system of test [2] is [^111In]-labeled platelets. In words: [111In]-labeled platelet binding to balloon-injured femoral arteries. The note with it: for adhesion of [^111In]-labelled platelets to injured vessels: local administration 15 minutes, 15 minutes recirculation, n=6. Type of test: in vivo, rabbit. How it is done:
Femoral arteries were isolated and balloon injured as described in Example 1. During paired local administration of polythiolated S-nitroso-albumin and polythiolated albumin, [^111In]-labeled platelets were administered intravenously and allowed to circulate after flow was reestablished in the treated arteries. [^111In]-labeled platelet binding was determined by quantification of radioactivity after flow was re-established for a period of 15 minutes. Non-specific [^111In]-labeled platelet binding (Uninjured Carotid Artery) was determined from uninjured carotid artery harvested with femoral arteries. Data are presented as mean +/− SEM per gram of wet tissue weight and are derived from six animals. *P<0.05, PS-BSA vs. pS-NO-BSA.
as §1, with “perioperatively. The skin over the femoral arteries was next infiltrated with 1% lidocaine (Astra Pharmaceuticals, Inc., Westborough, Mass.) and the common femoral arteries were exposed from the inguinal ligament to the superficial femoral artery.” for “perioperatively.”

Test [3] deals with balloon-injured rabbit femoral artery. As to the kind of experiment: Neointimal proliferation after balloon injury of femoral artery (morphometry). Type of test: in vivo. How it is done: Femoral arteries were isolated and balloon injured as described below. pS-BSA or pS-NO-BSA were applied in a paired fashion directly into the arterial lumen for 15 minutes and then blood flow was re-established. […] Neointimal proliferation is reported as the absolute neointimal area in FIG. 5A and as a ratio of neointima/media in FIG. 5B in 4-6 segments from each artery. Data are expressed as mean +/− SEM and are derived from 15 vessels in the BSA and S-NO-BSA groups, 11 vessels in the PS-BSA group, 7 vessels in the PS-NO-BSA and SHAM groups, and 5 in the SNP group. *P<0.05, pS-NO-BSA vs. PS-BSA. +/+P<0.05 Sodium nitroprusside vs. pS-BSA for both FIGS. 5A and 5B.
Animal Preparation: All animal preparations were performed within the institutional guidelines of the Brockton/West Roxbury Department of Veteran Affairs Medical Center and Boston University Medical Center, and in accordance with the guiding principles of the American Physiological Society. New Zealand white rabbits (3.5-4.2 kg) of either sex were premedicated with 5 mg/kg intramuscular (IM) xylazine hydrochlolide (Miles Pharmaceuticals, Shawnee Mission, Kans.), and 0.1 mg/kg subcutaneous (SC) atropine sulfate (Lyphomed, Deerfield, Ill.) fifteen minutes prior to the induction of anesthesia. Anesthesia was induced with 40 mg/kg IM ketamine hydrochloride (Fort Dodge Laboratories, Fort Dodge, Ind.) and 5 mg/kg IM acepromazine maleate (Aveco Company, Inc., Fort Dodge, Ind.). Additional doses of ketamine hydrochloride were administered as necessary to maintain anesthesia. For survival studies, 100,000 U penicillin G (Apothecon of Bristol-Myers Squibb, Princeton, N.J.), was administered IM perioperatively. The skin over the femoral arteries was next infiltrated with 1% lidocaine (Astra Pharmaceuticals, Inc., Westborough, Mass.) and the common femoral arteries were exposed from the inguinal ligament to the superficial femoral artery. Arteries were cleared of connective tissue, side branches were ligated, and the superficial femoral artery was suspended with silk ties. A 1.5-to-2.0 cm length of femoral artery was isolated from the circulation proximally and distally with neurosurgical microaneurysm clips. The superficial femoral-artery was cannulated with a 2F Fogarty balloon catheter (American Edwards Laboratories, Santa Ana, Calif.) that was passed into the isolated segment of femoral artery. The balloon was inflated with sufficient air to generate slight resistance and withdrawn three times. A 20 g angiocath was then inserted in the arteriotomy and 1 ml of 25.8 mg/ml PS-NO-BSA or 49.2 mg/ml S-NO-BSA was administered over 15 minutes. The contralateral femoral artery was prepared identically and an appropriate control (25.8 mglml pS-BSA, 49.2 mg/ml BSA or 0.66 mg/ml sodium nitroprusside) was administered. For binding studies, 0.5 ml of [^125I]-labeled nitrosylated albumin or control was administered. Following administration of the agent, the superficial femoral artery was ligated and flow reestablished. Sham-operated animals underwent surgical exposure and sidebranch ligation, but no balloon injury was performed or local delivery administered. The area of balloon injury was marked by surgical staples in the adjacent muscle fascia. For chronic studies, the incision was closed with subcuticular absorbable suture and the animals allowed to recover. For acute studies, blood was allowed to circulate through the treated areas for 15 minutes prior to vessel harvest. In some experiments, a distant control vessel, the right carotid artery, was isolated and harvested without any other manipulation.
A 7F plastic cannula was inserted into the abdominal aorta and the vessels perfused clear with saline followed by fixation at 100 mm Hg pressure with 10% buffered formalin. The vessels were stored in 10% buffered formalin and the samples paraffin-embedded and microtome-sectioned. […]

For test [4], the system named is proliferating cell nuclear antigen. In words: PCNA staining of proliferating cells 7 days after balloon injury. Type of test: in vivo, rabbit. Particulars: 7 days after injury. How it is done:
In a separate set of animals, vessels were perfusion-fixed with 10% buffered formalin seven days after injury and processed for analysis of proliferating cells within 12 hours as described above. Sections were stained for proliferating cell nuclear antigen and adjacent sections were stained with hematoxylin and eosin. Five representative sections from each segment were examined. Total nuclei were counted from the hematoxylin and eosin slides and percent PCNA positive cells were defined as the number of PCNA-positive nuclei divided by the total number of nuclei multiplied by 100.

In the next test the test system is platelet cGMP. In words: Platelet cGMP in platelet-rich plasma exposed ex vivo to treated vessel rings. Type of test: cell-based, human. The note with it: one-minute exposure of PRP to treated vessel rings, 10 μM isobutylmethylxanthine, n=14. How it is done: Rabbit femoral arteries were isolated and balloon-injured as described with reference to FIG. 4. After paired local administration of polythiolated S-nitroso-albumin and polythiolated albumin for 15 minutes, the vessels were harvested and divided into 2 mm rings. The rings were then immersed in 100 μl of platelet-rich plasma containing 10 μM 3-isobutyl-1-methylxanthine and were incubated for 1 minute ex-vivo. An equal volume of ice-cold 10% trichloroacetic acid was added to each aliquot and the sample vortexed. Platelet cGMP assay was then performed as described in “Methods.” Data are expressed as mean +/− SEM. *P<0.05.
cGMP analysis: Whole blood was obtained from fasting human volunteers and platelet-rich plasma (PRP) was prepared by centrifugation. Platelet counts were determined using a Coulter counter model ZM (Coulter Diagnostics, Hileah, Fla.). After balloon injury and treatment with pS-NO-BSA or PS-BSA, arterial segments were harvested and 2-mm segments were incubated with 100 μl of PRP containing 10 μM isobutylmethylxanthine. After 1 minute, an equal volume of ice-cold 10% trichloroacetic acid was added to each aliquot and the sample vortexed. Enzyme-linked immunoassay of cGMP was then performed (Cayman Chemical Company, Ann Arbor, Mich.). […]

Another test deals with vessel cGMP. As to the kind of experiment: Vessel tissue cGMP after local treatment of balloon-injured artery. In kind it is in vivo, rabbit. The note with it: treated balloon-injured vessel segments, n=3. How it is done:
cGMP analysis: Whole blood was obtained from fasting human volunteers and platelet-rich plasma (PRP) was prepared by centrifugation. Platelet counts were determined using a Coulter counter model ZM (Coulter Diagnostics, Hileah, Fla.). After balloon injury and treatment with pS-NO-BSA or PS-BSA, arterial segments were harvested and 2-mm segments were incubated with 100 μl of PRP containing 10 μM isobutylmethylxanthine. After 1 minute, an equal volume of ice-cold 10% trichloroacetic acid was added to each aliquot and the sample vortexed. Enzyme-linked immunoassay of cGMP was then performed (Cayman Chemical Company, Ann Arbor, Mich.). Separate 2 mm vessel segments were also assayed for tissue CGMP after treatment with ice-cold 10% trichloroacetic acid and sonication (Heat Systems-Utrasonics, Inc., Plainview, N.Y.).

The mark [5] stands for this setting: 14 days after balloon injury, local delivery 15 minutes.
[6] abbreviates: 14 days after balloon injury, n=7.

On to “[^125I]-S-NO-BSA: [125I]-labeled S-nitroso-albumin used for binding studies”, for which the “binding to injured femoral artery, local delivery” value in test [1] (applied directly into injured artery, 15 minutes flow, n=4) was 140.4+/−3.9 ×10^3 cpm/gm. In addition, in test [1] (injected intraarterially via opposite femoral artery, 15 minutes flow, n=4), the “binding to injured femoral artery, systemic delivery” value is recorded as 5.4+/−0.9 ×10^3 cpm/gm. The “increase in binding, local vs systemic delivery” value in test [1] (injured femoral artery) stood at 26 fold.
Regarding “pS-BSA: thiolated bovine serum albumin, non-nitrosylated control for pS-NO-BSA [reference compound]”, in test [2], the “adhesion of [^111In]-labelled platelets to injured vessels” value is recorded as 71.3+/−40.4 ×10^3 cpm/gm. Besides, the neointima/media ratio is listed as 0.068±0.027 in test [3] (7 days after injury, n=5) and 0.85+/−0.122 in test [3] (setting [5]). Besides, the neointimal area in test [3] (7 days after injury, n=5) is on record as 0.258+/−0.19 ×10^5 μm^2; in test [3] (setting [5]) it was 2.24+/−0.328 ×10^5 μm^2. The “percent of proliferating (PCNA positive) cells” value in test [4] is reported as 30.1% +/−5.9. For the same substance, the “platelet cGMP” value in the test with platelet cGMP is 4.11+/−0.9 pmol 10^8 platelets. In the test with vessel cGMP, the “vessel cGMP levels” value was 0.283+/−0.23 pmol/mg protein.
Consider “pS-NO-BSA: polythiolated S-nitroso-albumin; thiolated BSA nitrosylated with NaNO2 in HCl”, for which the “adhesion of [^111In]-labelled platelets to injured vessels” value in test [2] was 16.3+/−6.2 ×10^3 cpm/gm. For the same substance, the “reduction of platelet adhesion compared to control” value in test [2] (local administration, injured femoral artery) is “over four-fold”. In test [3] (7 days after injury, n=5), the neointima/media ratio came out at 0.032±0.005 and the neointimal area is 0.124±0.06 ×10^5 μm^2. Further, in test [3] (setting [5]), the neointima/media ratio was 0.196 +/−0.66 and the neointimal area is 0.41+/−0.11 ×10^5 μm^2. In addition, in test [3] (setting [6]), the “reduction of neointima/media ratio vs control” value was determined as 77% and the “reduction of neointimal area vs control” value worked out at 81%. For the same substance, in test [4], the “percent of proliferating (PCNA positive) cells” value is 37.8% +/−5.9. Moreover, the “platelet cGMP” value in the test on platelet cGMP is on record as 19.9+/−3.3 pmol 10^8 platelets. Moreover, in the test with vessel cGMP, the “vessel cGMP levels” value is given as 0.48+/−0.46 pmol/mg protein.
